Measurements from patent US8003595B2, “Amino acid sequences facilitating penetration of a substance of interest into cells and/or cell nuclei” (Cellectis, priority 2000, dated 2011).
Where two headings read alike, the source gives them in different places. Marks after values point to notes of the source that are not given here. Where no end group is shown, it is not given here.

Tests used:
[1] = system: Escherichia coli (ATCC 25922); assay: microbe, parasite or virus in culture; assay type: cell-based; details: ATCC 25922; read-out: MBC
Experimental: (§1) The gram-positive bacterial strains are: Enterococcus faecalis (ATCC 29212), and Staphylococcus aureus (ATCC 25923) and the gram-negative strains are: Escherichia coli (ATCC 25922), Pseudomonas aeruginosa (ATCC 27853) and Salmonella typhimurim (clinical isolate), Salmonella typhiTy2 (WHO). The bacteria are cultured with shaking all night at 37° C., then recultured at a dilution of 1:50 in some fresh Luria-Bertani (LB) medium for 2 hours. The bacterial concentration is adjusted to […], and 50 μl is distributed in 96-well plates with an equal volume of peptides diluted half and half (256-0.5 μg/ml) in LB medium. […] To determine the minimum bactericide concentration, 10 μl from each well is spread on gelose plates in LB medium.
(§2) The results are expressed as the peptide concentration in MBC (μM).

[2] = system: Pseudomonas aeruginosa (ATCC 27853); assay: microbe, parasite or virus in culture; assay type: cell-based; details: ATCC 27853
Experimental: as §1, §2

[3] = system: Enterococcus faecalis (ATCC 29212); assay: microbe, parasite or virus in culture; assay type: cell-based; details: ATCC 29212
Experimental: as §1, §2

[4] = system: Staphylococcus aureus (ATCC 25923); assay: microbe, parasite or virus in culture; assay type: cell-based; details: ATCC 25923
Experimental: as §1, §2

[5] = system: Salmonella typhimurim (clinical isolate); assay: Antibacterial activity of cationic peptides (MBC); assay type: cell-based; details: S. typhimurium
Experimental: as §1, §2

[6] = mouse, in vivo, iv
Experimental: (§9) Injection of doxorubicin or doxorubicin-peptide by the intravenous route makes it possible to compare the toxicity of the different preparations. The estimate is made by the weight loss of the mice (5 mice per group). Two experiments were done: • Experiment 1: The mice received 200 μg per injection at 3-day intervals, or 600 μg of doxorubicin or the equivalent peptide-doxorubicin in all. The mice were weighed the day after the last injection. • Experiment 2: The mice received 2 injections of 200 -μg of doxorubicin or the peptide-doxorubicin equivalent at one week intervals, or 400 μg in all, and were weighed the day after the last injection.
(§10) The average weight loss is calculated in relation to the average weight of the mice that received NaCl.

[7] = system: Salmonella typhiTy2 (WHO); assay: microbe, parasite or virus in culture; assay type: cell-based, S. typhi-Ty2; details: S. typhi-Ty2
Experimental: as §1, §2

[8] = system: Escherischia coli (ATCC25922); assay: Activity of lysozyme coupled to peptides (MBC); assay type: cell-based, Escherichia coli; details: E. coli
Experimental: The […] bacterial strain Escherischia coli (ATCC25922) is cultured until the semi-logarithmic phase in Luria-Bertani (LB) medium. The bacteria are collected by centrifugation and resuspended in 1% bacto-peptone medium at a concentration of 5×10^5 cfu/ml (colony forming unit/ml). Lysozyme or the peptide-lysozyme conjugates are diluted half and half (256 to 0.5 μg/ml) in bacto-peptone medium, and 50 μl is distributed in 96-well plates. 50 μl of the bacterial dilution is then added to each well. After 16 hours of incubation at 37° C., 10 μl from each well is smeared on gelose plates in LB medium.
Table 28 reports the inhibition of the growth of E. coli (MBC μg/ml).

H1299 cells [9] = assay: Inhibition of peptide-peroxidase internalization by drugs or 4° C.; assay type: cell-based, human; details: peptide-peroxidase 0.2 μg/ml, 2 hours
Experimental: To understand the biological mechanisms whereby the peptides penetrate into the cells and their compartmentalization, experiments are done with drugs whose action on certain cell compartments is specific. The peptide-peroxidases were incubated with H1299 cells at a concentration of 0.2 μg/ml for 2 hours in the presence, or not, of a drug. The cells were lysed, and the peroxidase dosed in the cellular lysate.

Caco-2 cell monolayers = assay: Integrity of the Caco-2 barrier model in presence of HBP peptides; details: Table 30; 30 μg/ml, 8 hours in HBSS; three inserts; listed as HBP7
Experimental: Caco-2 cells were seeded at a density of 160000 cells/cm^2 on a polyethylene terephtalate microporous membranes, previously coated with bovine dermal collagen, in a synthetic serum-free medium (Basal Defined Medium, BDM). Culture medium was changed three times a week and cells were maintained at 37° C. in a an atmosphere of 5% CO2 for 18 days. As a negative control to check the integrity of the Caco-2 barrier, 10^6 dpm/ml D-[^14C]-mannitol was used. […] Other controls included D-[^14C]-mannitol/L-[^3H]-Proline+HBP7 30 μg/ml and D-[^14C]-mannitol/L-[^3H]-proline+HBP10 30 μg/ml.
Trans-epithelial transport experiments were carried out. The trans-epithelial electrical resistance (TEER) was measured to check the integrity of the Caco-2 cell monolayers. The cell monolayers were preincubated in Hanks' balanced salt solution (HBSS, 5 mM glucose, supplemented with 10 mM Hepes) for 8 hours at 37° C. At 1, 2, 4 and 8 hours, 100 μl of medium was collected from the lower compartment and replaced by fresh HBSS. At the end of the experiment (8 hours), the cell monolayers were washed three times with PBS and TEER was measured.

H1299 cells [10] = assay: Internalization of covalent peptide-peroxidase conjugates; assay type: cell-based, human; details: H1299, 0.2 μg/ml conjugate, 2 hours
Summary of the method: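 Peptides coupled via C-terminal cysteine to maleimide-activated peroxidase; uncoupled peptide removed by ultrafiltration. H1299 cells incubated 2 h with increasing conjugate concentrations, washed, lysed; internalized peptide quantified from lysate peroxidase against a conjugate standard curve, as pg/10^3 cells.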

3T3 = assay: as above; assay type: cell-based, mouse; details: 2 hours
Experimental: (§3) To evaluate more directly the penetration of the peptides, avoiding the avidin-peroxidase bias, some of the peptides in sequences SEQ ID NO: 25 to 48 were conjugated covalently with cysteine in the C-terminal position of the peptide to peroxidase. The peptides were coupled with peroxidase in the following way:
(§4) One mg of peroxidase activated with maleimide (Sigma) in 100 μl of sodium phosphate buffer, NaCl 0.15 M, EDTA 5 mM, had 1 mg of peptide added to it. After 2 hours at laboratory temperature, β-mercaptoethanol is added to a final concentration of 1.5 mM for 15 minutes. The uncoupled peptide is eliminated by centrifugation on ultrafiltration membranes (cut-off threshold=30,000 Daltons, Sartorius), followed by three washings in sodium phosphate buffer 0.1 M, pH 7.4 containing 0.15 M NaCl.
(§5) It appears that the higher the concentration of peptide-peroxidase conjugate in the culture medium, the more the quantity internalized increases. To compare the penetration of the conjugates by cell type, the cells from different lines were incubated with 0.2 μg/ml of peptide-peroxidase conjugate for 2 hours, and the quantity of peroxidase dosed in the lysates. Table 9 and Table 9B below give the results expressed in pg/10^3 cells. The quantity of each peptide internalized in the different lines generally varies only from single to double.

[11] = ELISA fixation of biotinylated peptides on sensitized plates; assay type: binding; details: read-out: avidity (Kd), quantity of peptides necessary to obtain 50% fixation, Heparin; Table 5
Experimental: The capacity of peptides SEQ ID NO: 1 to 21 to attach themselves to DNA and heparin is evaluated on ELISA plates sensitized with DNA or heparin. Dilutions of biotinylated peptides are deposited on the plates and their fixation is shown using streptavidin conjugated with peroxidase. […] The avidity of each of the peptides for DNA or heparin is evaluated by the quantity (×10^−6 M) of peptides necessary to obtain 50% fixation.

[12] = system: gram-positive and gram-negative bacterial strains; assay: Antibacterial activity of cationic peptides, summary over strains; assay type: cell-based; details: summary of Table 29
Experimental: as §1
However, when peptide HPB13 (SEQ ID NO: 38) is coupled with peptide SEQ ID NO: 24, it enhances its activity by a factor of 50 to 100 (peptide SEQ ID NO: 45). […] None these peptides are active on gram-positive bacteria.

[13] = ELISA fixation of biotinylated peptides on sensitized plates; assay type: binding; details: read-out: avidity (Kd), quantity of peptides necessary to obtain 50% fixation, Chondroitin A; Table 5
[14] = as above; assay type: binding; details: read-out: avidity (Kd), quantity of peptides necessary to obtain 50% fixation, Chondroitin C; Table 5
[15] = as above; assay type: binding; details: read-out: avidity (Kd), quantity of peptides necessary to obtain 50% fixation, Chondroitin B; Table 5
HeLa = assay: Internalization of covalent peptide-peroxidase conjugates; assay type: cell-based, human; details: 2 hours
Experimental: as §3, §4, §5

B16.F10 = assay: Growth inhibition by peptide-doxorubicin conjugates (MTT, 48 hours); assay type: cell-based, murine; details: Mus musculus, read-out: molar concentration giving 50% inhibition of the growth of the cells
Experimental: (§6) To evaluate the biological activity of peptide-doxorubicin conjugates, the inhibition of the growth of tumor cells in culture is measured.
(§7) The cells are sown the night before in 96-well plates at the rate of 10^3 cells per well.

HH9 tumors = assay: In vivo anti-tumor activity of peptide-doxorubicin conjugates; parameters: species or system nude mice; details: day 60, total of 120 μg of doxorubicin or the equivalent, peritumoral injection
Experimental: Nude mice are injected with 3×10^6 HH9 cells subcutaneously in the side. On day 19 after the cell implant, the tumors are measured, and 4 groups of 6 mice are formed that receive by peritumoral injection either NaCl, or natural doxorubicin, or 1047-doxorubicin, or HBP1-doxorubicin conjugates at the rate of 30 μg of doxorubicin or the equivalent of conjugates every two weeks. The tumors are measured and their volume calculated.

H1299 = assay: Growth inhibition by peptide-doxorubicin conjugates (MTT, 48 hours); assay type: cell-based; details: Homo sapiens, NCI-H1299, read-out: molar concentration giving 50% inhibition of the growth of the cells
Experimental: as §6, §7

HH9 = assay: as above; assay type: cell-based; details: Homo sapiens, read-out: molar concentration giving 50% inhibition of the growth of the cells
Experimental: as §6, §7

K562 R = assay: as above; assay type: cell-based; details: Homo sapiens, K-562R, read-out: molar concentration giving 50% inhibition of the growth of the cells, resistant to doxorubicin
Experimental: as §6, §7
(§8) It appears that, in vitro, the sensitivity of the cells to the peptide-doxorubicin conjugates is on the same order of magnitude as that of natural doxorubicin. The lines resistant to doxorubicin (K562R and MCF7R) require a greater concentration of doxorubicin.

MCF7R = assay: as above; assay type: cell-based; details: Homo sapiens, read-out: molar concentration giving 50% inhibition of the growth of the cells, resistant to doxorubicin
Experimental: as §6, §7, §8

[16] = In vivo toxicity of peptide-doxorubicin conjugates (weight loss); details: for Weight loss: relative to mice that received NaCl; for Weight of the mice: intravenous, peptide-doxorubicin conjugates
Experimental: as §9, §10

HeLa cells = assay: Penetration of RNase A transported by peptide-F(ab′)2 anti-RNase transporter; assay type: cell-based, human
Experimental: Two mg of antibody F(ab′)2 anti-RNase in 1 ml of potassium phosphate buffer 0.1 M pH 7.4 are added to 110 μg of SMCC [succinimidyl 4-(N-maleimidomethyl)cyclohexane-1-carboxylate] in 11 μl of dimethylsulfoxide. The solution is incubated for 45 minutes at laboratory temperature. The excess reagent is eliminated by centrifugation on ultrafiltration membranes (cutoff threshold=10,000 Da, Vivascience), followed by three washings in sodium phosphate buffer 10 mM, pH 7 containing 01.5 M of NaCl and 5 mM of EDTA. The coupling with the peptide is then done in a molar ratio of 6 peptides to 1 F(ab′)2 in the sodium phosphate buffer 10 mM, pH 7, containing 0.5 M of NaCl and 5 mM of EDTA for three hours at laboratory temperature. Then, the excess uncoupled peptide is totally eliminated by centrifugation on ultrafiltration membranes, as in the preceding step. These transporters [anti-RNase peptide-F(ab′)2)] are added to ribonuclease A in some complete culture medium, and the solution is incubated for 1 hour at laboratory temperature. The molar ratio of this reaction is 2 RNase/1 F(ab′)2. […]
To measure the quantity of RNase A internalized, the cells are trypsinized, transferred into microtubes and counted. […]

Experimental for HH9 cells: The cells are sown at night on plates with 96 wells, at the rate of 10^3 cells per well.
The next day, the supernatant is suctioned off and replaced with 100 μl of medium containing succession dilutions of RNase A-vector or natural RNase A and the culture continued for 72 hours.
The wells are then filled with 50 μl of a solution of MTT (3-(4,5-dimethylthiazol-2-yl)-2,5-diphenyl tetrazolium bromide) at 1 mg/ml in the culture medium and cultivated for 4 hours.
The supernatant is removed, and 100 μl of dimethylsulfoxide is added to the wells. After the crystals dissolve, the coloration is read at 550 nm.
The results are calculated as a percentage of the average optic density obtained in the wells of cells containing the dilutions of the samples being tested and the optical density of the wells that received only medium.
The different peptide-RNase conjugates were tested on varied cell lines.

KHLKKHLKKHLK [SEQ ID NO: 38]
MBC [1]: >170 µM
MBC [2]: >170 µM
MBC [3]: >170 µM
MBC [4]: >170 µM
MBC [5]: >170 µM
Weight of the mice [6]: 30
MBC [7]: >170 µM

Natural lysozyme: lysozyme, a muraminidase, unconjugated
minimal bactericide concentration (MBC), inhibits 75% of the growth [8]: >256 µg/mL

GKRKKKGKLGKKRDP [SEQ ID NO: 30]
percentage inhibition of peptide internalization (H1299 cells [9]; Ammonium chloride (50 mM)): 70%
percentage inhibition of peptide internalization (H1299 cells [9]; Chloroquin (100 μM)): 79%
percentage inhibition of peptide internalization (H1299 cells [9]; Genistein (200 μM)): 68%
percentage inhibition of peptide internalization (H1299 cells [9]; Sodium chloride (80 mM)): 69%
percentage inhibition of peptide internalization (H1299 cells [9]; Temperature (4° C.)): 100%
TEER after incubation (Caco-2 cell monolayers): 145 Ω · cm^2
Internalization of Peptide-peroxidase (H1299 cells [10]; Table 9): 22.5 pg/10^3 cells
Internalization of Peptide-peroxidase (H1299 cells [10]; Table 9B): 63.3 pg/10^3 cells
Internalization of Peptide-peroxidase (3T3; Table 9, 0.2 μg/ml conjugate): 48.8 pg/10^3 cells
Internalization of Peptide-peroxidase (3T3; Table 9B, 0.2 μg/ml conjugate): 44.2 pg/10^3 cells
Kd [11]: 54 nM
bactericide / anti-microbial activity [12]: no anti-microbial activity
Kd [13]: 78 nM
Kd [14]: 19 nM
Kd [15]: 58 nM
Internalization of Peptide-peroxidase (HeLa; Table 9, 0.2 μg/ml conjugate): 11 pg/10^3 cells
Internalization of Peptide-peroxidase (HeLa; Table 9B, 0.2 μg/ml conjugate): 3.6 pg/10^3 cells

COc1cccc2c1C(=O)c1c(O)c3c(c(O)c1C2=O)C[C@@](O)(C(=O)CO)C[C@@H]3O[C@H]1C[C@H](N)[C@H](O)[C@H](C)O1 [Doxorubicin (natural), Doxorubicin]
IC50 (B16.F10): 100 nM
tumor growth inhibition (HH9 tumors): 79%
IC50 (H1299): 300 nM
IC50 (HH9): 300 nM
IC50 (K562 R): 3000 nM
IC50 (MCF7R): 200000 nM
Weight loss ([16]; Exp. 1: 600 μg in all): 31* %
Weight loss ([16]; Exp. 1: 600 μg in all, listed as natural doxorubicin): 31%
Weight of the mice ([16]; Exp. 1: 600 μg of doxorubicin or equivalent in all): 16.06
Weight loss ([16]; Exp. 2: 400 μg in all): 15%
Weight of the mice ([16]; Exp. 2: 400 μg of doxorubicin or equivalent in all): 26.7

B1: natural RNase A: bovine Ribonuclease A, unconjugated (protein)
chain: KETAAAKFERQHMDSSTSAASSSNYCNQMMKSRNLTKDRCKPVNTFVHESLADVQAVCSQKNVACKNGQTNCYQSYSTMSITDCRETGSSKYPNCAYKTTQANKHIIVACEGNPYVPVHFDASV
Quantity of RNase internalized (HeLa cells): 0 pg/10^4 cells
cytotoxic activity (HH9 cells): no cytotoxic activity
